Measurements as given in ChEMBL document CHEMBL2417441, “Synthesis, structure, and cytotoxicity studies of some fungal isochromanes” (J Nat Prod, 2013).
Activity calls are given as the source filed them. The rule behind the calls is not given here.

What was measured:
HCT-116 [1] = test: Cytotoxicity against human HCT116 cells after 72 hrs by WST-8 assay; assay type: functional, cell-based; settings: HCT-116, 72 h
HCT-116 [2] = test: Induction of apoptosis in human HCT116 cells assessed as DNA fragmentation at 5 uM after 72 hrs by TUNEL assay; assay type: functional, cell-based
HCT-116 [3] = test: Induction of apoptosis in human HCT116 cells at 5 uM after 72 hrs by fluorescence microscopic analysis relative to etoposide; assay type: functional

| SMILES | IC50 (HCT-116 [1]) [µM] | Activity (HCT-116 [2]) | fold change (FC) (HCT-116 [3]) |
| --- | --- | --- | --- |
| C[C@@H](O)Cc1cccc(O)c1CO | > 100 |  |  |
| CO[C@H]1O[C@H](C)Cc2ccc3c(c21)OC(=C(C)C)C3=O [USTUSORANE C] | 5.9 |  |  |
| CO[C@H]1O[C@H](C)Cc2ccc3c(c21)O[C@H](C(C)C)C3=O | > 100 |  |  |
| CC(C)=C1Oc2c(ccc3c2C(=O)O[C@H](C)C3)C1=O | 9.8 |  |  |
| CO[C@H]1O[C@H](C)Cc2ccc3c(c21)O[C@@H](C(C)C)C3=O (relative stereo) | > 100 |  |  |
| CC(C)=C1Oc2c(ccc3c2[C@@H](O)O[C@H](C)C3)C1=O [(+)-PSEUDODEFLECTUSIN] | 5 | Active | 2 |
| CC(C)[C@H]1Oc2c(ccc3c2[C@@H](O)O[C@H](C)C3)C1=O | > 100 |  |  |
| CC[C@@]1(O)C(=O)OCc2c1cc1n(c2=O)Cc2cc3ccccc3nc2-1 [CAMPTOTHECIN] | 0.016 |  |  |
| CC(C)[C@@H]1Oc2c(ccc3c2[C@@H](O)O[C@H](C)C3)C1=O | > 100 |  |  |
